# Results: US20220354844A1, “METHODS OF TREATING METABOLIC DISEASES WITH FUSED BICYCLIC PYRAZOLES” (Belite Bio, Inc, priority 2017, published 2022)
# Values joined by “and” are separate entries in the source; they are usually repeats but may differ in a detail not shown here. Equal values may be shown once. Read-outs that look alike come from different tables or passages of the source.
# Tests used:
# [1] = system: Subjects with NAFLD or NASH; test: Treatment of NAFLD and NASH in humans; type: in vivo, human; details: 50 or 100 mg/day for 6 months
# Protocol: Subjects with NAFLD or NASH are treated with doses of either 50 or 100 mg/day of compound 1 or 2 for 6 months. Subjects are permitted their usual other medications (e.g. antidiabetic medications such as metformin or […]) but not glitazones, PPAR agonists, OCA, or similar medications. The subjects are assessed before the study, and at intervals during the study, such as every 4 weeks during the study and 4 weeks after the last dose of compound 1 or 2, for safety and pharmacodynamic evaluations.
# MRIs of the subjects' livers are taken every 4 weeks during the study and 4 weeks after completion of compound 1 or 2 dosing, to determine hepatic fat; and liver biopsies are taken before the study (to establish the diagnosis) and 4 weeks after completion of compound 1 or 2 dosing. At each visit, after a 12-hour fast, blood is drawn and urine collected; and a standard metabolic panel, complete blood count, and standard urinalysis are performed. Blood is analyzed for total cholesterol, HDL-C, LDL-C, VLDL-C, TGs, apoB, and liver transaminases. The subjects also maintain health diaries, which are reviewed at each visit.
# [2] = Compound 2 single dose rat PK study; type: in vivo, male Sprague Dawley rats; details: for Vd: read-out: Vss
# Protocol: A pharmacokinetic study of Compound 2 following a single intravenous or oral dose administration to male Sprague Dawley rats was conducted, the results of which are found in Table 5 and FIGS. 21-24.
# [3] = male, Sprague Dawley, plasma, iv, 2 mg/kg, single iv dose 2 mg/kg, Mean of the 3 rats
# [4] = male, Sprague Dawley, plasma, iv, 2 mg/kg, single iv dose 2 mg/kg, individual rats
# [5] = male, Sprague Dawley, plasma, po, 5 mg/kg, single po dose 5 mg/kg, Mean of the 3 rats
# [6] = male, Sprague Dawley, plasma, po, 5 mg/kg, single po dose 5 mg/kg, individual rats
# [7] = single iv dose 2 mg/kg, individual rats, 2 mg/kg
# [8] = single po dose 5 mg/kg, individual rats, 5 mg/kg
structure (smiles),measurement,setting,value
"CC(=O)N1Cc2[nH]nc(C(=O)N3CCC(c4ccc(F)c(F)c4C(F)(F)F)CC3)c2C1 [Compound 2, 1-(3-(4-(3,4-difluoro-2-(trifluoromethyl)phenyl)piperidine-1-carbonyl)-4,6-dihydropyrrolo[3,4-c]pyrazol-5(1H)-yl)ethan-1-one]","improvement in their disease, as manifested by MRI and liver biopsy",[1],dose-related improvement
same,AUC(0-inf),[2]; [3],5750 ng·h/mL
same,AUC(0-t),[2]; [3],5720 ng·h/mL
same,MRT inf,[2]; [3],2.3 h
same,MRT last,[2]; [3],2.2 h
same,clearance,[2]; [3],3.17 mL/min/kg
same,half-life,[2]; [3],6.6 h
same,Tmax,"[2]; male, Sprague Dawley, plasma, iv, 2 mg/kg, single iv dose 2 mg/kg, Mean of the 3 rats, first plasma collection time or observed time of highest plasma concentration",0.22 h
same,Cmax,"[2]; male, Sprague Dawley, plasma, iv, 2 mg/kg, single iv dose 2 mg/kg, Mean of the 3 rats, read-out: Cmax",2840 ng/mL
same,Vd,[2]; [3],0.436 L/kg
same,MRT inf,[2]; [4],2.1 h
same,MRT last,[2]; [4],2 h
same,half-life,[2]; [4],7.1 h
same,Cmax,"[2]; male, Sprague Dawley, plasma, iv, 2 mg/kg, single iv dose 2 mg/kg, individual rats, read-out: Cmax",2920 ng/mL
same,Vd,[2]; [4],0.421 L/kg
same,AUC(0-inf),[2]; [5],6410 ng·h/mL
same,AUC(0-t),[2]; [5],6370 ng·h/mL
same,MRT inf,[2]; [5],4.8 h
same,MRT last,[2]; [5],4.5 h
same,Tmax,[2]; [5],0.5 h
same,half-life,[2]; [5],8 h
same,Cmax,"[2]; male, Sprague Dawley, plasma, po, 5 mg/kg, single po dose 5 mg/kg, Mean of the 3 rats, read-out: Cmax",1600 ng/mL
same,AUC(0-inf),[2]; [6],5340 ng·h/mL
same,AUC(0-t),[2]; [6],5280 ng·h/mL
same,MRT inf,[2]; [6],5 h
same,MRT last,[2]; [6],4.5 h
same,Tmax,[2]; [6],0.5 h
same,half-life,[2]; [6],10.9 h
same,Cmax,"[2]; male, Sprague Dawley, plasma, po, 5 mg/kg, single po dose 5 mg/kg, individual rats, read-out: Cmax",1530 ng/mL
same,AUCLAST,[2]; [7],5039 ng·h/mL and 8134 ng·h/mL and 3994 ng·h/mL
same,Cl,[2]; [7],2.05 mL/min/kg
same,Cmax,[2]; [7],3275 ng/mL and 2320 ng/mL
same,MRTinf,[2]; [7],2.6 h and 2.3 h
same,MRTlast,[2]; [7],2.5 h and 2.1 h
same,Vss,[2]; [7],0.315 L/kg and 0.572 L/kg
same,t1/2,[2]; [7],7.0 h and 5.7 h
same,F,"[2]; single po dose 5 mg/kg, Mean of the 3 rats",44.6%
same,AUCLAST,[2]; [8],8392 ng·h/mL and 5435 ng·h/mL
same,AUCinf,[2]; [8],8434 hr · ng/m1 and 5452 hr · ng/m1
same,Cmax,[2]; [8],2036 ng/mL and 1240 ng/mL
same,F,[2]; [8],37.2% and 58.7% and 38.0%
same,MRTinf,[2]; [8],5.4 h and 4.1 h
same,MRTlast,[2]; [8],5.1 h and 4.0 h
same,t1/2,[2]; [8],7.7 h and 5.5 h
